Assay results from the NIST ThermoML archive (doi:10.1021/acs.jced.5b00369).

Assay: relative permittivity at zero frequency (dimensionless); xn = mol fraction of the nth substance listed
Conditions: 101 kPa, Liquid

CC(C)[N+](=O)[O-] [2-nitropropane] + ClC(Cl)(Cl)Cl
298.15 K, two-terminal dielectric cell
Conditions	relative permittivity at zero frequency
x1 = 0.001006	2.24531
x1 = 0.002745	2.27181
x1 = 0.00569	2.31696
x1 = 0.01141	2.40482
x1 = 0.01707	2.49201
x1 = 0.02266	2.57869
x1 = 0.02488	2.61322
x1 = 0.02599	2.62967
x1 = 0.02803	2.6614
x1 = 0.03078	2.70432
x1 = 0.03634	2.79196
x1 = 0.04183	2.87937
x1 = 0.04726	2.9666

CCC[N+](=O)[O-] [1-nitropropane] + Cc1ccc(C)cc1
298.15 K, two-cell dielectric cell
Conditions	relative permittivity at zero frequency
x1 = 0.005128	2.31627
x1 = 0.007441	2.34224
x1 = 0.01482	2.4248
x1 = 0.0221	2.50652
x1 = 0.02927	2.58754
x1 = 0.03246	2.62349
x1 = 0.03388	2.63942
x1 = 0.03604	2.66416
x1 = 0.03819	2.68861
x1 = 0.04527	2.77022
x1 = 0.05226	2.85114
x1 = 0.05913	2.93159

CC(C)[N+](=O)[O-] [2-nitropropane] + CC(C)C(C)C
298.15 K, two-terminal dielectric cell
Conditions	relative permittivity at zero frequency
x1 = 0.003786	1.92648
x1 = 0.007756	1.96704
x1 = 0.01545	2.04621
x1 = 0.02302	2.12477
x1 = 0.03047	2.20279
x1 = 0.03298	2.22897
x1 = 0.03446	2.24427
x1 = 0.03679	2.26913
x1 = 0.04419	2.34842
x1 = 0.0515	2.42769
x1 = 0.05867	2.50669
x1 = 0.06479	2.5748
x1 = 0.06604	2.58924
x1 = 0.06819	2.61329
x1 = 0.07183	2.65458
x1 = 0.07889	2.73569
x1 = 0.08584	2.81657
x1 = 0.09268	2.89729

CC[N+](=O)[O-] [nitroethane] + Cc1ccc(C)cc1
298.15 K, two-terminal dielectric cell
Conditions	relative permittivity at zero frequency
x1 = 0.001685	2.2782
x1 = 0.009202	2.35917
x1 = 0.01833	2.45822
x1 = 0.02729	2.55599
x1 = 0.03608	2.65295
x1 = 0.04032	2.69936
x1 = 0.05043	2.81296
x1 = 0.05899	2.91009
x1 = 0.0674	3.00647
x1 = 0.07566	3.10223

CCC[N+](=O)[O-] [1-nitropropane] + C1CCCCC1
298.15 K, two-cell dielectric cell
Conditions	relative permittivity at zero frequency
x1 = 0.003184	2.05488
x1 = 0.006527	2.09539
x1 = 0.01302	2.1734
x1 = 0.01942	2.24959
x1 = 0.02574	2.3244
x1 = 0.02693	2.33815
x1 = 0.02818	2.3525
x1 = 0.03015	2.37603
x1 = 0.03648	2.4508
x1 = 0.04272	2.52479
x1 = 0.04887	2.59808
x1 = 0.05327	2.64994
x1 = 0.05626	2.68544
x1 = 0.0594	2.72327
x1 = 0.06549	2.79734
x1 = 0.07152	2.87045
x1 = 0.07893	2.96124

CC(C)[N+](=O)[O-] [2-nitropropane] + C1CCCCC1
298.15 K, two-terminal dielectric cell
Conditions	relative permittivity at zero frequency
x1 = 0.001188	2.0322
x1 = 0.003139	2.0568
x1 = 0.006442	2.09876
x1 = 0.009592	2.13855
x1 = 0.01286	2.18001
x1 = 0.01918	2.26067
x1 = 0.02225	2.29974
x1 = 0.0266	2.35434
x1 = 0.031	2.41041
x1 = 0.03475	2.45922
x1 = 0.04093	2.54037
x1 = 0.04703	2.62139
x1 = 0.05035	2.66577
x1 = 0.05259	2.69578
x1 = 0.05527	2.7322
x1 = 0.05838	2.77444
x1 = 0.06441	2.857
x1 = 0.07038	2.93937

CCC[N+](=O)[O-] [1-nitropropane] + ClC(Cl)(Cl)Cl
298.15 K, two-cell dielectric cell
Conditions	relative permittivity at zero frequency
x1 = 0.002869	2.27091
x1 = 0.005861	2.3147
x1 = 0.01167	2.39918
x1 = 0.01742	2.48214
x1 = 0.0231	2.56405
x1 = 0.0253	2.59588
x1 = 0.02987	2.66163
x1 = 0.03553	2.74365
x1 = 0.04122	2.82491
x1 = 0.04993	2.95383
x1 = 0.05263	2.99295
x1 = 0.05816	3.07483
x1 = 0.06363	3.15625

CC(C)[N+](=O)[O-] [2-nitropropane] + Cc1ccc(C)cc1
298.15 K, two-terminal dielectric cell
Conditions	relative permittivity at zero frequency
x1 = 0.005471	2.32313
x1 = 0.007307	2.34454
x1 = 0.01457	2.42922
x1 = 0.02174	2.51328
x1 = 0.02879	2.59677
x1 = 0.03194	2.63439
x1 = 0.03336	2.65058
x1 = 0.03555	2.67711
x1 = 0.04256	2.76165
x1 = 0.04948	2.84581
x1 = 0.05628	2.92956
x1 = 0.06235	3.00461

CC[N+](=O)[O-] [nitroethane] + ClC(Cl)(Cl)Cl
298.15 K, two-terminal dielectric cell
Conditions	relative permittivity at zero frequency
x1 = 0.003529	2.27902
x1 = 0.00724	2.3313
x1 = 0.01443	2.4321
x1 = 0.02153	2.53048
x1 = 0.02851	2.62767
x1 = 0.0311	2.6639
x1 = 0.03397	2.7038
x1 = 0.04093	2.80121
x1 = 0.04779	2.89785
x1 = 0.05456	2.9938

ClC(Cl)(Cl)Cl [tetrachloromethane] + C[N+](=O)[O-]
two-terminal dielectric cell
Conditions	relative permittivity at zero frequency
298.15 K, x2 = 0.00098	2.24081
298.15 K, x2 = 0.001471	2.24714
298.15 K, x2 = 0.001979	2.25361
298.15 K, x2 = 0.002444	2.25959
298.15 K, x2 = 0.002927	2.26574
298.15 K, x2 = 0.003884	2.27791
298.15 K, x2 = 0.004245	2.28249
298.15 K, x2 = 0.00484	2.29002
298.15 K, x2 = 0.005797	2.30213
298.15 K, x2 = 0.006743	2.31404
298.15 K, x2 = 0.007679	2.32583
298.15 K, x2 = 0.008374	2.33457
298.15 K, x2 = 0.01041	2.35982
298.15 K, x2 = 0.01242	2.38483
298.15 K, x2 = 0.01439	2.40939
298.15 K, x2 = 0.01577	2.42642
298.15 K, x2 = 0.01737	2.44616
298.15 K, x2 = 0.01871	2.46233
298.15 K, x2 = 0.02204	2.50367
298.15 K, x2 = 0.02674	2.56122
298.15 K, x2 = 0.03418	2.65322
298.15 K, x2 = 0.04333	2.76524
298.15 K, x2 = 0.0523	2.87591
298.15 K, x2 = 0.0567	2.92988
318.15 K, x2 = 0.000162	2.23812
318.15 K, x2 = 0.000418	2.24125
318.15 K, x2 = 0.0008265	2.24641
318.15 K, x2 = 0.001238	2.25158
318.15 K, x2 = 0.001648	2.25667
318.15 K, x2 = 0.002055	2.26176
318.15 K, x2 = 0.00246	2.26679
318.15 K, x2 = 0.003263	2.2768
318.15 K, x2 = 0.003558	2.28051
318.15 K, x2 = 0.004468	2.29186
318.15 K, x2 = 0.005663	2.30678
318.15 K, x2 = 0.007033	2.3239
318.15 K, x2 = 0.007748	2.33263
318.15 K, x2 = 0.009707	2.35737
318.15 K, x2 = 0.0113	2.37756
318.15 K, x2 = 0.01572	2.4327
318.15 K, x2 = 0.02009	2.48822
318.15 K, x2 = 0.02486	2.54795
318.15 K, x2 = 0.02873	2.59732
318.15 K, x2 = 0.03299	2.65111
318.15 K, x2 = 0.0414	2.75865
318.15 K, x2 = 0.04472	2.80151
318.15 K, x2 = 0.054	2.91886
318.15 K, x2 = 0.06623	3.07885
318.15 K, x2 = 0.07426	3.18574
318.15 K, x2 = 0.08027	3.26614

CC[N+](=O)[O-] [nitroethane] + C1CCCCC1
298.15 K, two-terminal dielectric cell
Conditions	relative permittivity at zero frequency
x1 = 0.003987	2.0631
x1 = 0.008153	2.11122
x1 = 0.01622	2.20858
x1 = 0.02416	2.2932
x1 = 0.03312	2.3893
x1 = 0.0371	2.43784
x1 = 0.04487	2.5254
x1 = 0.05252	2.6119
x1 = 0.06004	2.69759
x1 = 0.06369	2.73934

C[N+](=O)[O-] [nitromethane] + c1ccccc1
two-terminal dielectric cell
Conditions	relative permittivity at zero frequency
298.15 K, x1 = 0.000817	2.28834
298.15 K, x1 = 0.001228	2.294
298.15 K, x1 = 0.001638	2.29956
298.15 K, x1 = 0.002045	2.30518
298.15 K, x1 = 0.00245	2.31071
298.15 K, x1 = 0.003332	2.32281
298.15 K, x1 = 0.003559	2.32593
298.15 K, x1 = 0.004459	2.33824
298.15 K, x1 = 0.005656	2.35464
298.15 K, x1 = 0.006833	2.37085
298.15 K, x1 = 0.007322	2.37753
298.15 K, x1 = 0.007982	2.38639
298.15 K, x1 = 0.01242	2.44757
298.15 K, x1 = 0.01595	2.49623
298.15 K, x1 = 0.02031	2.55663
298.15 K, x1 = 0.02465	2.61628
298.15 K, x1 = 0.0332	2.7354
298.15 K, x1 = 0.04458	2.89495
298.15 K, x1 = 0.05494	3.03914
298.15 K, x1 = 0.06641	3.20367
298.15 K, x1 = 0.08012	3.40373
318.15 K, x1 = 0.000437	2.19342
318.15 K, x1 = 0.0008868	2.19856
318.15 K, x1 = 0.001333	2.20368
318.15 K, x1 = 0.001778	2.20876
318.15 K, x1 = 0.002219	2.21383
318.15 K, x1 = 0.002658	2.2188
318.15 K, x1 = 0.003857	2.23245
318.15 K, x1 = 0.004835	2.24352
318.15 K, x1 = 0.006131	2.25821
318.15 K, x1 = 0.007631	2.27516
318.15 K, x1 = 0.009325	2.29411
318.15 K, x1 = 0.01132	2.31664
318.15 K, x1 = 0.01305	2.33622
318.15 K, x1 = 0.0149	2.35704
318.15 K, x1 = 0.01628	2.37368
318.15 K, x1 = 0.02047	2.42114
318.15 K, x1 = 0.02519	2.47484
318.15 K, x1 = 0.03005	2.53001
318.15 K, x1 = 0.0345	2.58032
318.15 K, x1 = 0.04273	2.67386
318.15 K, x1 = 0.05416	2.80502
318.15 K, x1 = 0.06683	2.9527
318.15 K, x1 = 0.07816	3.08644
318.15 K, x1 = 0.09171	3.24999
